Experimental data: patent US20260109714A1, “PYRIMIDINE-FUSED RING COMPOUND, AND PREPARATION METHOD THEREFOR AND USE THEREOF” (GENFLEET THERAPEUTICS (SHANGHAI) INC., priority 2022, published 2026)

Experiments:
[1] = test system: AGS human gastric cancer cell line with KRAS G12D mutation; test: Cell proliferation inhibition experiment, 3D CellTiter-Glo, AGS; type: cell-based; conditions: Homo sapiens, 120 h, AGS cells, 3D spheroid, 5 days
In short: (§1)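 3D spheroids (800 AsPC-1 or 400 AGS cells/well) established overnight, then treated with 3.16-fold compound dilutions (0.1% DMSO) for 5 days. Viability read by CellTiter-Glo 3D luminescence; inhibition normalised to DMSO and medium blank, IC50 by four-parameter fit.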

[2] = test system: AGS p-ERK; test: Cell assay for p-ERK (HTRF, Advance ERK phospho-T202/Y204 kit); type: cell-based, human; conditions: Homo sapiens; AGS cells (KRAS G12D), 3 hrs with compound, inhibition of p-ERK level
In short: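 KRAS G12D AGS gastric cancer cells were plated overnight, then exposed 3 h to 3.16-fold compound dilutions at 0.1% DMSO final. Lysates were probed for ERK phospho-T202/Y204 by HTRF after 4 h. Inhibition relative to DMSO and blank was fitted by four-parameter regression for IC50.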

[3] = in vivo; conditions: male, CD-1, mouse, po, 30 mg/kg
Experimental: Test objective: Male CD-1 mice were used as test animals. The drug concentrations in plasma of mice at various times were determined by LC/MS/MS after intravenous and oral administration of the test compounds. The pharmacokinetic behavior of the test compounds in mice was studied and their pharmacokinetic characteristics were evaluated.
Test methods: test animals: 60 healthy adult male CD-1 mice, aged 6-8 weeks and weighing about 30 g, and divided into 10 groups, including IV groups (intravenous injection group, five groups), with 6 mice in each group; and PO groups (oral administration group, five groups), with 6 mice in each group.
Preparation of drug solution: IV group: Taking 10 mL sample solution as an example, 2 mg sample was weighed, 0.5 mL DMSO and 1 mL Solutol HS 15 were sequentially added, and then 8.5 mL 6% HP-β-CD was added, and stirred ultrasonically to obtain a clear solution of 0.2 mg/mL.
PO group 1: Taking 10 mL sample solution as an example, 10 mg sample was weighed, 0.5 mL DMSO and 1 mL Solutol HS 15 were sequentially added, and then 8.5 mL 6% HP-β-CD was added, and stirred ultrasonically to obtain a 1 mg/mL solution.
PO group 2: A 3 mg/mL solution of the sample was prepared according to the preparation method for PO group 1.
Administration: After overnight fasting, the mice in the IV group were administered with a volume of 5 mL/kg at a dose of 1 mg/kg.
PO group 1: The mice were administered with a volume of 10 mL/kg at a dose of 10 mg/kg.
PO group 2: The mice were administered with a volume of 10 mL/kg at a dose of 30 mg/kg.
Experimental operations: Male CD-1 mice in the intravenous injection group and oral administration group were given the test compound, respectively. After that, 50 μl of blood was periodically collected into a K2EDTA anticoagulation tube at 0.0833, 0.25, 0.5, 1, 2, 4, 6, 8 and 24 hrs, and the plasma was separated by centrifugation at 4° C. and 8000 rpm for 15 min. The plasma was stored in dry ice at −80° C. 4 hrs after administration, the animals were allowed to free access to food. The contents of the test compounds in plasma of mice after intravenous and oral administration were determined by LC/MS/MS. The linear range of the method was 1-3000 ng/ml. The plasma samples were treated with acetonitrile to precipitate the protein and then analyzed.

[4] = test system: AsPC-1 human pancreatic cancer cell with KRAS G12D mutation; test: Cell proliferation inhibition experiment, 3D CellTiter-Glo, AsPC-1; type: cell-based; conditions: Homo sapiens, ASPC1, 120 h, AsPC-1 cells, 3D spheroid, 5 days
In short: as §1

| SMILES | IC50 [1] | IC50 [2] | AUC(0-t) [3] | bioavailability [3] | IC50 [4] |
| --- | --- | --- | --- | --- | --- |
| C[C@@H]1Oc2nc(-c3cc(N)cc(Cl)c3C(F)(F)F)c(F)c3nc(OC[C@@]45CCCN4CC(=C(F)F)C5)nc(c23)N2C[C@H]3CC[C@H](N3)[C@@H]12 [Z1084, 3-chloro-5-((5S,5aS,6S,9R)-12-(((S)-2-(difluoromethylene)tetrahydro-1H-pyrrolizin-7a(5H)-yl)methoxy)-1-fluoro-5-methyl-5a,6,7,8,9,10-hexahydro-5H-4-oxa-3,10a,11,13,14-pentaaza-6,9-methanonaphtho[1,8-ab]hepten-2-yl)-4-(trifluoromethyl) aniline] | 380 pM | 120 pM | 2440 ng·h/mL | 20.7% | 1230 pM |
| [2H]C([2H])([2H])[C@@H]1Oc2nc(-c3cc(N)cc(Cl)c3C(F)(F)F)c(F)c3nc(OC[C@@]45CCCN4CC(=C(F)F)C5)nc(c23)N2C[C@H]3CC[C@H](N3)[C@@H]12 [Z1054, 3-chloro-5-((5S,5aS,6S,9R)-12-(((S)-2-(difluoromethylene)tetrahydro-1H-pyrrolizin-7a(5H)-yl)methoxy)-1-fluoro-5-(methyl-d3)-5a,6,7,8,9,10-hexahydro-5H-4-oxa-3,10a,11,13,14-pentaaza-6,9-methanonaphtho[1,8-ab]hepten-2-yl)-4-(trifluoromethyl) aniline] | 370 pM | 430 pM | 3250 ng·h/mL | 29.4% | 1290 pM |
